Data set [1] has as its system HT-29 human colon carcinoma cells. The data set is described as follows: HT-29 tumor cell growth inhibition / cytotoxicity (Sulforhodamine B Assay). The data set is classed as cell-based. Conditions: 168 h, HT-29, seven days continuous exposure. The method, then: (§1) The compounds of this invention were assayed for their effect on the human colon carcinoma cell lines HT-29 and SW-480 obtained from ATCC (Rockville, Md.), representative of precancerous lesions to ascertain the degree of tumor growth inhibition following treatment with compounds of this invention. The cell line employed for these experiments is well characterized, and is used by the United States National Cancer Institute in their screening program for new anticancer drugs. Growth inhibition of this cell line is thought to be indicative of a benefit on precancerous lesions and neoplasms.
Tumor cell cytotoxicity was assessed using the Sulforhodamine B Assay. In this assay, HT-29 tumor cells were plated in 96-well plates and treated with drug-containing media for seven days (continuous exposure). At the end of the exposure period, the cell were fixed and stained with sulforhodamine B (a pink fluorescent dye). The dye was then solubilized, and the optical density of the resulting pink solution determined on a 96-well plate reader. The mean dye intensity of the treated wells was then divided by the mean dye intensity in the control wells (6 wells of each) to determine the effect of the drug on the cells. Dye intensity is proportional to the number of cells or amount of protein per well. The resultant "percent of control" value then represents the degree of growth inhibition caused by the drug.
For each experiment, an IC50 value was determined and used for comparative purposes. This value is equivalent to the concentration of drug needed to inhibit tumor cell growth by 50%. IC50 values were obtained graphically by connecting the mean values for each drug concentration tested. Each experiment included at least six wells per drug concentration. Concentration was plotted on a log scale on the X-axis.

Data set [2] in a line: Solubility remark in the HT-29 table. The data set is classed as physicochemical. As to conditions: printed in the IC50 column of TABLE I.
In a further data set the test system is prostaglandin synthesis. Conditions: acknowledged / regarded; cited from earlier work.
For another data set, the system named is polyps. Conditions: when the patient take the drug; cited from earlier work.
The conditions of data set [3]: sulfoxide itself, believed; cited from earlier work.
Data set [4] relates to SW-480 colon adenocarcinoma cells. The data set is described as follows: Apoptosis: DNA fragmentation assay (Cell Death Detection ELISA plus). The data set is classed as cell-based. As to conditions: Homo sapiens, SW480, SW-480, 48 hrs; for EC50: apoptosis. As for the experimental part:
as §1
Apoptosis was measured based on the amount of fragmented DNA contained in cell lysates. Briefly, SW-480 colon adenocarcinoma cells were plated at a density of 10K cells/well in 180 μl to 96-well microtitre plates ("MTP"), and incubated for 24 hrs. Cells were then treated with 20 μl aliquots appropriately diluted compound, and allowed to incubate for 48 hrs.
After the incubation, samples were prepared according to the following steps. […] Samples were analyzed immediately, because storage at 4 C or […] reduces the ELISA-signals.
Samples were then processed according to a DNA fragmentation assay protocol, and dose-response curves were generated based on optical density readings. […] The assay is based on a quantitative sandwich-enzyme-immunoassay-principle using mouse monoclonal antibodies directed against DNA and histones, respectively. […]
According to the vendor, the assay works in the following fashion. […] After removal of unbound antibodies by a washing step, the amount of nucleosomes is quantified by the POD retained in the immunocomplex. POD is determined photometrically with ABTS® (2,2'-Azino-di[3-ethylbenzthiazolin-sulfonat])* as substrate.
Fold stimulation (FS=ODmax/ODveh), an indicator of apoptotic response, was determined for each compound data analysis software, or by estimates based on the effective concentration range of each compound (ECR=min. effective dose-min. dose to peak effect).
In general terms: ELISA stands for enzyme-linked immunosorbent assay.

Results on eleven compounds are retold here after patent publication US6300346A, “Indenyl hydroxamic acids, (hydroxy) ureas and urethanes for treating patients with precancerous lesions” (Cell Pathways, Inc., priority 2000, dated 2001).

In the case of `CCOC(=O)NCC1=C(C)/C(=C/c2ccc(S(C)(=O)=O)cc2)c2ccc(F)cc21` [Example 27, (Z)-N-{[5-Fluoro-2-methyl-1-(p-methylsulfonyl-benzylidene)-inden-3-yl]-methyl}-O-ethyl urethane], the IC50 (commonly the concentration needed to halve the response being measured) in data set [1] came to 4.1 µM.

In the case of `CC1=C(CNC(=O)NCc2ccccc2)c2cc(F)ccc2/C1=C\c1ccc(S(C)(=O)=O)cc1` [Example 23, (Z)-N-{[5-Fluoro-2-methyl-1-(p-methylsulfonyl-benzylidene)-inden-3-yl]-methyl}-N'-benzyl urea], the IC50 in data set [1] fell in the range of 1.6 to 3.2 µM.

As to `CC1=C(CNC(=O)NC(C)C)c2cc(F)ccc2/C1=C\c1ccc(S(C)(=O)=O)cc1` [Example 21, (Z)-N-{[5-Fluoro-2-methyl-1-(p-methylsulfonylbenzylidene)inden-3-yl]-methyl}-N'-isopropyl urea], in data set [2], the “solubility (reason for IC50 N/A)” value is listed as “not very soluble”.

Consider `CSc1ccc(/C=C2/C(C)=C(CC(=O)O)c3cc(F)ccc32)cc1` [sulfide], for which, in the data set with prostaglandin synthesis, the “activity as a prostaglandin (synthesis) inhibitor” value is reported as “active moiety as a prostaglandin inhibitor”.

Consider `CC1=C(CC(=O)O)c2cc(F)ccc2/C1=C\c1ccc([S+](C)[O-])cc1` (stereo not drawn) [Sulindac, (Z)-5-fluoro-2-methyl-1-(4-methylsulfinylbenzylidene)inden-3-ylacetic acid], for which, in the data set with polyps, the effect on polyps result is “Polyps virtually disappear”. In data set [3], the “activity as an anti-arthritic agent” value is “inactive”.

In turn, `COCCOC(=O)NCC1=C(C)/C(=C/c2ccc(S(C)(=O)=O)cc2)c2ccc(F)cc21` [Example 28, (Z)-N-{[5-Fluoro-2-methyl-1-(p-methylsulfonyl-benzylidene)-inden-3-yl]-methyl}-O-methoxyethyl urethane] yielded an IC50 in data set [1] of 7.1 to 11 µM.

With `CC1=C(CNC(=O)NCCCN(C)C)c2cc(F)ccc2/C1=C\c1ccc(S(C)(=O)=O)cc1` [Example 22, (Z)-N-{[5-Fluoro-2-methyl-1-(p-methylsulfonyl-benzylidene)-inden-3-yl]-methyl}-N'-dimethylaminopropyl urea], in data set [1], the IC50 was 4.4 to 5.4 µM. Further, in data set [4], the EC50 (as a rule, the concentration needed to bring the measured effect to its halfway point) came out at 75 µM.

`CC1=C(CNC(=O)OC(C)C)c2cc(F)ccc2/C1=C\c1ccc(S(C)(=O)=O)cc1` [Example 25, (Z)-N-{[5-Fluoro-2-methyl-1-(p-methylsulfonyl-benzylidene)-inden-3-yl]-methyl}-O-isopropyl urethane] yielded an IC50 in data set [1] of 3.2 to 4 µM.

Consider `CC1=C(CC(=O)O)c2cc(F)ccc2/C1=C\c1ccc(S(C)(=O)=O)cc1` [sulfone], for which the “activity as a prostaglandin (synthesis) inhibitor” value in the data set on prostaglandin synthesis is “inactive”.

Regarding `CC1=C(CNC(=O)NCC(N)=O)c2cc(F)ccc2/C1=C\c1ccc(S(C)(=O)=O)cc1` [Example 24, (Z)-N-{[5-Fluoro-2-methyl-1-(p-methylsulfonyl-benzylidene)-inden-3-yl]-methyl}-N'-glycinamide urea], the “solubility (reason for IC50 N/A)” value in data set [2] is “not very soluble”.

Turning to `COC(=O)NCC1=C(C)/C(=C/c2ccc(S(C)(=O)=O)cc2)c2ccc(F)cc21` [Example 26, (Z)-N-{[5-Fluoro-2-methyl-1-(p-methylsulfonyl-benzylidene)-inden-3-yl]-methyl}-O-methyl urethane], the IC50 in data set [1] is 4.5 to 8 µM. Moreover, the maximal fold induction in data set [4] (FS=ODmax/ODveh, read-out: Fold Stimulation) lay in the range of 5 to 6.8. For the same compound, in data set [4], the EC50 is 250 µM.
